Source: patent US11820756B2, “Bradykinin B2 receptor antagonists” (Pharvaris Netherlands B.V., priority 2017, dated 2023)

Target: T1, human bradykinin B2 receptor (hB2R) (Homo sapiens, UniProt P30411)
T1 sequence (P30411 1-391): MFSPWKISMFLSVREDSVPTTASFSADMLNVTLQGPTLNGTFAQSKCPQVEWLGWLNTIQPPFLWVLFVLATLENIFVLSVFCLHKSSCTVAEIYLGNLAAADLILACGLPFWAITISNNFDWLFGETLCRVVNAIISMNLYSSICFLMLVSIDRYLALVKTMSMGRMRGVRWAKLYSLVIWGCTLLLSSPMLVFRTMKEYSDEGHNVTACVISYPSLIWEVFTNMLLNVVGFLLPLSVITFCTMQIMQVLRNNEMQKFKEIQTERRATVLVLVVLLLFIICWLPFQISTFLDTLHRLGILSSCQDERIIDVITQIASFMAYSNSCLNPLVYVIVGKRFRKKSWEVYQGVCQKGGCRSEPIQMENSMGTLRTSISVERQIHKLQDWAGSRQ
Test: cell-based human bradykinin B2 receptor calcium mobilization (hB2R-CaM) assay
Conditions: HTS041C cells, bradykinin at EC80, calcium mobilization; read-out: IC50-value towards human bradykinin B2 receptor (hB2R)
Excerpt: The following cell-based human bradykinin B2 receptor calcium mobilization (hB2R-CaM) assay was used to determine the antagonistic activity of compounds selected from the example compounds Nos. 1 to 168 towards human bradykinin B2 receptor (hB2R). The assay is defined herein as a standard in vitro B2 receptor activity assay, which can be used to determine IC50 values of the compounds according to the present invention, e. g. the compounds shown in Examples 1-11.
The antagonistic activity of compounds according to the present invention was investigated with the hB2R-CaM assay using the B2 Bradykinin Receptor Stable Cell Line HTS041C (Eurofins, St. Charles MO) and the FLIPR Calcium 6 Assay Kit (Molecular Devices, Wokingham, UK) according to the instructions of the providers. CaM assay measurements were performed with a Flexstation 3 System (Molecular Devices) which allows the precise addition of compounds (B2R antagonists) and bradykinin (B2R agonist) to the cells and adjacent continuous recording of the time-dependent CaM assay signals.
HTS041C cells were cultured in high glucose DMEM cell culture medium (Lonza) supplemented with 10% heat-inactivated FBS (PAN Biotech), 10 mM HEPES, Penicillin/Streptomycin (200 U/mL, 200 μg/mL), 1× non-essential amino acids (Lonza), and 250 μg/mL G418 (Invivogen) in cell incubator at 37° C. in a 5% CO2 atmosphere.
One day before the CaM assay experiments cells were seeded in 200 μL DMEM cell culture medium with reduced FBS (5%) and without G418 on clear bottom black 96 well plates (ThermoFisher #165305). Cell starvation was carried out by incubation (37° C., 5% CO2) of 70.000 cells/well for 24 h to 28 h. Immediately prior calcium dye-loading the medium was carefully aspirated and cells were washed with Hank's balanced salt solution (HBSS, Gibco) containing Ca^2+, Mg^2+ and 20 mM HEPES, adjusted to pH 7.4 (HBSS+). Calcium Dye Loading of the Cells:
For calcium dye-loading one FLIPR 6 assay aliquot was dissolved in 20 mL HBSS+. 150 μL of the dye loading solution was added to cell plate and incubated for 120 min at 37° C. and 5% CO2. After dye loading the cell plate was immediately transferred to the pre-warmed (37° C.) Flexstation 3 System for CaM assaying.
Freshly prepared compound (B2 receptor antagonists) dilution series (8 pt, n=2) and bradykinin (B2 receptor agonist) solution in non-binding plates (Costar) were transferred to the Flexstation System (source plate) shortly before starting the experiment. Bradykinin was added in EC80 concentration determined in n>3 preliminary experiments with 8 pt concentration response curves (n=8)). CaM assay was executed by Flexstation 3 System starting with recording of calcium-sensitive dye fluorescence in bottom-read Flex modus with ex/em=485 nm/525 nm, cut off(em)=[…]. After 20 s, 50 μL of 4-fold concentrated compound dilutions were added to the cells resulting in a final DMSO (Sigma) concentration of 0.1% in the cell plate. CaM signals were monitored for 80 s after additions for detection of potential agonistic activities. Prior to bradykinin stimulus compound- and vehicle-treated cells were incubated for 25 min at 37° C. within the Flexstation System. Then 50 μL of a 5-fold concentrated bradykinin solution (HBSS+, 0.1% DMSO) was added to trigger CaM signals (Read out: Max-Min values) which were measured for 80 s post bradykinin stimulus.
IC50 determinations were performed by 4 parameter logistic model curve fitting of the 8 pt (n=2) compound concentration response curves using XLFIT (IDBS) software.
Relative IC50 values of the test compounds were determined with the same hB2R-CaM assay as in Example 12.

First: Cc1cc(-n2ncc(F)c2C)c2cccc(OCc3c(Cl)cc(F)cc3[C@H](C)NC(=O)[C@@H](C)O)c2n1 [Compound 8, (R)—N—((S)-1-(3-chloro-5-fluoro-2-((4-(4-fluoro-5-methyl-1H-pyrazol-1-yl)-2-methylquinolin-8-yloxy)methyl)phenyl)ethyl)-2-hydroxypropanamide]
Second: Cc1cc(-n2cnc(C)n2)c2cccc(OCc3c(Cl)cc(F)cc3[C@H](C)NC(=O)[C@@H](C)O)c2n1 [Compound 98]
The IC50 of the first is lower: 51 to 250 nM for the first, 251 to 1000 nM for the second.

`CCn1ncnc1-c1cc(C)nc2c(OCc3c(Cl)cc(F)cc3[C@H](C)NC(=O)c3coc(C)n3)cccc12` [Compound 142] and `CC[C@H](NC(=O)c1coc(C)n1)c1cc(F)cc(Cl)c1COc1cccc2c(-c3ncnn3C)cc(C)nc12` [Compound 149] cannot be ordered by IC50: no more than 50 nM for the first, no more than 50 nM for the second.

`CC[C@H](NC(=O)COC(F)(F)F)c1cc(F)cc(Cl)c1COc1cccc2c(-n3ncnc3C)cc(C)nc12` [Compound 167] and `[2H][C@@](C)(NC(=O)CC(F)(F)F)c1cc(F)cc(Cl)c1COc1cccc2c(-n3ncnc3C)cc(C)nc12` [Compound 208] cannot be ordered by IC50: no more than 50 nM for the first, no more than 50 nM for the second.

First: CC[C@@H](O)C(=O)N[C@@H](C)c1cc(F)cc(Cl)c1COc1cccc2c(-n3cc(F)cn3)cc(C)nc12 [Compound 24]
Second: Cc1cc(-n2cc(F)cn2)c2cccc(OCc3c(Cl)cc(F)cc3[C@H](C)NC(=O)[C@@H](O)CN)c2n1 [Compound 21]
The IC50 of the first is lower: 51 to 250 nM for the first, 251 to 1000 nM for the second. The first is the more potent here.

`Cc1cc(-c2ncnn2C)c2cccc(OCc3c(Cl)cc(F)cc3[C@H](C)NC(=O)[C@@H](C)OC(F)F)c2n1` [Compound 85] and `[2H][C@@](C)(NC(=O)[C@@H](C)F)c1cc(F)cc(Cl)c1COc1cccc2c(-c3ncnn3C)cc(C)nc12` [Compound 211] cannot be ordered by IC50: no more than 50 nM for the first, no more than 50 nM for the second.

`Cc1cc(-n2nccn2)c2cccc(OCc3c(Cl)cc(F)cc3[C@H](C)NC(=O)[C@H](C)O)c2n1` [Compound 32] and `Cc1cc(-n2nccn2)c2cccc(OCc3c(Cl)cc(F)cc3[C@H](C)NC(=O)[C@@H](C)O)c2n1` [Compound 31] fall in the same range of IC50: 51 to 250 nM for the first, 51 to 250 nM for the second.

`Cc1cc(-n2cc(F)cn2)c2cccc(OCc3c(Cl)cc(F)cc3[C@H](C)NC(=O)[C@@H](C)OC(F)F)c2n1` [Compound 93] and `Cc1cc(-n2cc(F)cn2)c2cccc(OCc3c(Cl)cc(F)cc3[C@H](C)NC(=O)C(F)F)c2n1` [Compound 146] fall in the same range of IC50: 51 to 250 nM for the first, 51 to 250 nM for the second.

Compared with `Cc1cc(-n2cc(F)cn2)c2cccc(OCc3c(Cl)cc(F)cc3[C@H](C)NC(=O)[C@@H](O)CCN)c2n1` [Compound 66], `Cc1cc(-n2cc(F)cn2)c2cccc(OCc3c(Cl)cc(F)cc3[C@H](C)NC(=O)[C@H](O)CC(C)C)c2n1` [Compound 47] is higher in IC50: 51 to 250 nM for the first, 251 to 1000 nM for the second.

First: Cc1cc(-n2cc(F)cn2)c2cccc(OCc3c(Cl)cc(F)cc3[C@H](C)NC(=O)c3c(C)noc3C)c2n1 [Compound 87]
Second: Cc1cc(-n2cc(F)cn2)c2cccc(OCc3c(Cl)cc(F)cc3[C@H](C)NC(=O)c3ocnc3C)c2n1 [Compound 91]
The IC50 of the first is higher: 51 to 250 nM for the first, no more than 50 nM for the second. The second is the more potent here.

`CC[C@H](NC(=O)C(F)F)c1cc(F)cc(Cl)c1COc1cccc2c(-n3cc(F)cn3)cc(C)nc12` [Compound 151] and `Cc1cc(-n2cc(F)cn2)c2cccc(OCc3c(Cl)cc(F)cc3[C@H](C)NC(=O)C(C)C(F)(F)F)c2n1` (some centres unmarked) [Compound 54] fall in the same range of IC50: 51 to 250 nM for the first, 51 to 250 nM for the second.

`CCOCC(=O)N[C@@H](C)c1cc(F)cc(Cl)c1COc1cccc2c(-c3ncnn3C)cc(C)nc12` [Compound 84] and `Cc1cc(-c2ncnn2C)c2cccc(OCc3c(Cl)cc(F)cc3[C@H](C)NC(=O)COC(F)(F)F)c2n1` [Compound 116] cannot be ordered by IC50: no more than 50 nM for the first, no more than 50 nM for the second.

`Cc1cc(-c2[nH]ncc2C)c2cccc(OCc3c(Cl)cc(F)cc3[C@H](C)NC(=O)[C@@H](C)O)c2n1` [Compound 188] and `Cc1cc(-c2[nH]ncc2C)c2cccc(OCc3c(Cl)cc(F)cc3[C@H](C)NC(=O)c3cnco3)c2n1` [Compound 187] cannot be ordered by IC50: no more than 50 nM for the first, no more than 50 nM for the second.

First: Cc1cc(-n2cc(F)cn2)c2cccc(OCc3c(Cl)cc(F)cc3[C@H](C)NC(=O)[C@@H]3CCCO3)c2n1 [Compound 14]
Second: Cc1cc(-n2cc(F)cn2)c2cccc(OCc3c(Cl)cc(F)cc3[C@H](C)NC(=O)C3CNC3)c2n1 [Compound 68]
The IC50 of the first is lower: no more than 50 nM for the first, 51 to 250 nM for the second. The first is the more potent here.

`Cc1cc(-c2ccnn2C)c2cccc(OCc3c(Cl)cc(F)cc3[C@H](C)NC(=O)c3cnco3)c2n1` [Compound 196] and `Cc1cc(-n2ncnc2C)c2cccc(OCc3c(Cl)cc(F)cc3[C@H](C)NC(=O)c3cnco3)c2n1` [Compound 95] cannot be ordered by IC50: no more than 50 nM for the first, no more than 50 nM for the second.

First: Cc1cc(-n2nccn2)c2cccc(OCc3c(Cl)cc(F)cc3[C@H](C)NC(=O)C(C)(C)O)c2n1 [Compound 28]
Second: Cc1cc(-n2ncnc2C)c2cccc(OCc3c(Cl)cc(F)cc3[C@H](C)NC(=O)C(C)(C)O)c2n1 [Compound 160]
The IC50 of the first is higher: 51 to 250 nM for the first, no more than 50 nM for the second. The second is the more potent here.

`Cc1cc(-n2ncnc2C)c2cccc(OCc3c(Cl)cc(F)cc3[C@H](C)NC(=O)c3cc(C)on3)c2n1` [Compound 158] and `[2H][C@@](C)(NC(=O)CC(F)F)c1cc(F)cc(Cl)c1COc1cccc2c(-n3ncnc3C)cc(C)nc12` [Compound 209] cannot be ordered by IC50: no more than 50 nM for the first, no more than 50 nM for the second.

`Cc1cc(-c2ncc(C#N)n2C)c2cccc(OCc3c(Cl)cc(F)cc3[C@H](C)NC(=O)CC(F)(F)F)c2n1` [Compound 206] and `CCn1ncnc1-c1cc(C)nc2c(OCc3c(Cl)cc(F)cc3[C@H](C)NC(=O)COC(F)F)cccc12` [Compound 140] cannot be ordered by IC50: no more than 50 nM for the first, no more than 50 nM for the second.

`CC[C@H](NC(=O)C(F)F)c1cc(F)cc(Cl)c1COc1cccc2c(-c3ncnn3C)cc(C)nc12` [Compound 148] and `[2H][C@@](CO)(NC(=O)COC(F)F)c1cc(F)cc(Cl)c1COc1cccc2c(-c3ncnn3C)cc(C)nc12` [Compound 11B, (R)—N-(1-Deutero-1-(3-chloro-5-fluoro-2-((2-methyl-4-(1-methyl-1H-1,2,4-triazol-5-yl)quinolin-8-yloxy)methyl)phenyl)-2-hydroxyethyl)-2-(difluoromethoxy)acetamide] cannot be ordered by IC50: no more than 50 nM for the first, no more than 50 nM for the second.

Compared with `Cc1cc(-n2cc(F)cn2)c2cccc(OCc3c(Cl)cc(F)cc3[C@H](C)NC(=O)C3CN(C)C3)c2n1` [Compound 65], `Cc1cc(-n2cc(F)cn2)c2cccc(OCc3c(Cl)cc(F)cc3[C@H](C)NC(=O)[C@@H]3COC(C)(C)O3)c2n1` [Compound 61] is lower in IC50: 251 to 1000 nM for the first, no more than 50 nM for the second. The second is the more potent here.

First: Cc1cc(-n2cc(F)cn2)c2cccc(OCc3c(Cl)cc(F)cc3[C@H](C)NC(=O)C(C)OCC3CC3)c2n1 (some centres unmarked) [Compound 51]
Second: CCOCC(=O)N[C@@H](C)c1cc(F)cc(Cl)c1COc1cccc2c(-n3cc(F)cn3)cc(C)nc12 [Compound 18]
The IC50 of the first is higher: 51 to 250 nM for the first, no more than 50 nM for the second. The second is the more potent here.

`Cc1cc(-c2ncnn2C)c2cccc(OCc3c(Cl)cc(F)cc3[C@H](C)NC(=O)C(C)(C)O)c2n1` [Compound 64] and `Cc1cc(-c2ncnn2C)c2cccc(OCc3c(Cl)cc(F)cc3[C@H](C)NC(=O)c3ocnc3C)c2n1` [Compound 126] cannot be ordered by IC50: no more than 50 nM for the first, no more than 50 nM for the second.

`Cc1cc(-n2cc(F)cn2)c2cccc(OCc3c(Cl)cc(F)cc3[C@H](C)NC(=O)COC(F)(F)F)c2n1` [Compound 121] and `COC(=O)[C@@H](O)CC(=O)N[C@@H](C)c1cc(F)cc(Cl)c1COc1cccc2c(-n3cc(F)cn3)cc(C)nc12` [Compound 70] cannot be ordered by IC50: no more than 50 nM for the first, no more than 50 nM for the second.
